{"source": "patent US20100310475A1", "about": "“Biocide Capsules, Preparation Comprising them and Sanitary Pad Comprising the Preparation” (DOLHAY KLINIKA EG[…]., priority 2007, published 2010)", "origin": "cited, not measured here", "tested_on": "pathogens", "conditions": "water solution"}
{"substance": "polyvinyl-pyrrolidone iodine [PVP-iodine]", "values": [{"measurement": "most effective concentration-range", "value": "0.01-1 % by weight"}]}
